Data as given in ChEMBL document CHEMBL4392867, “Asperunguisins A-F, Cytotoxic Asperane Sesterterpenoids from the Endolichenic Fungus Aspergillus unguis” (J Nat Prod, 2019).
Where a name gives a salt, the structure may show the parent alone. Activity calls are given as the source filed them. The calls are words filed in the database; no cut-off is given here.

Legend:
[1] = tested on: HT-29; test: Cytotoxicity in human HT-29 cells assessed as reduction in cell viability incubated for 48 hrs by MTT assay; format: functional, cell-based; conditions: HT-29, 48 h
[2] = tested on: HepG2; test: Cytotoxicity in human HepG2 cells assessed as reduction in cell viability incubated for 48 hrs by MTT assay; format: functional, cell-based; conditions: HepG2, 48 h
[3] = tested on: SMMC-7721; test: Cytotoxicity in human SMMC7721 cells assessed as reduction in cell viability incubated for 48 hrs by MTT assay; format: functional, cell-based; conditions: SMMC-7721, 48 h
[4] = tested on: A549; test: Cytotoxicity in human A549 cells assessed as reduction in cell viability incubated for 48 hrs by MTT assay; format: functional, cell-based; conditions: A549, 48 h
[5] = tested on: U-87 MG; test: Cytotoxicity in human U87 cells assessed as reduction in cell viability incubated for 48 hrs by MTT assay; format: functional, cell-based, U-87MG ATCC
[6] = tested on: U-251; test: Cytotoxicity in human U251 cells assessed as reduction in cell viability incubated for 48 hrs by MTT assay; format: functional, cell-based; conditions: U-251, 48 h
[7] = tested on: A549; test: Induction of cell cycle arrest in human A549 cells assessed as accumulation at G1 phase at 15 uM incubated for 24 hrs by propidium iodide staining based flow cytometry (reference value: 66.99%); format: functional
[8] = tested on: A549; test: Induction of apoptosis in human A549 cells assessed as late apoptotic cells level at 10 uM incubated for 24 hrs by Annexin V-FITC and propidium iodide staining based flow cytometry (reference value: 4.14%); format: functional
[9] = tested on: A549; test: Induction of cell cycle arrest in human A549 cells assessed as accumulation at G2 phase at 20 uM incubated for 24 hrs by propidium iodide staining based flow cytometry (reference value: 13.54%); format: functional
[10] = tested on: A549; test: Induction of cell cycle arrest in human A549 cells assessed as accumulation at G2 phase at 15 uM incubated for 24 hrs by propidium iodide staining based flow cytometry (reference value: 13.54%); format: functional
[11] = tested on: A549; test: Induction of DNA damage in human A549 cells assessed as increase in expression of gamma-H2AX protein expression by Western blot analysis; format: functional, cell-based
[12] = tested on: A549; test: Induction of apoptosis in human A549 cells assessed as necrotic cells level at 20 uM incubated for 24 hrs by Annexin V-FITC and propidium iodide staining based flow cytometry (reference value: 3.23%); format: functional
[13] = tested on: A549; test: Induction of apoptosis in human A549 cells assessed as late apoptotic cells level at 15 uM incubated for 24 hrs by Annexin V-FITC and propidium iodide staining based flow cytometry (reference value: 4.14%); format: functional
[14] = tested on: A549; test: Induction of cell cycle arrest in human A549 cells assessed as accumulation at G1 phase incubated for 24 hrs by propidium iodide staining based flow cytometry; format: functional
[15] = tested on: A549; test: Induction of cell cycle arrest in human A549 cells assessed as accumulation at G2 phase at 10 uM incubated for 24 hrs by propidium iodide staining based flow cytometry (reference value: 13.54%); format: functional
[16] = tested on: A549; test: Induction of apoptosis in human A549 cells assessed as necrotic cells level at 10 uM incubated for 24 hrs by Annexin V-FITC and propidium iodide staining based flow cytometry (reference value: 3.23%); format: functional
[17] = tested on: A549; test: Induction of cell cycle arrest in human A549 cells assessed as accumulation at G1 phase at 20 uM incubated for 24 hrs by propidium iodide staining based flow cytometry (reference value: 66.99%); format: functional
[18] = tested on: A549; test: Induction of apoptosis in human A549 cells assessed as early apoptotic cells level at 20 uM incubated for 24 hrs by Annexin V-FITC and propidium iodide staining based flow cytometry (reference value: 1.81%); format: functional
[19] = tested on: A549; test: Induction of cell cycle arrest in human A549 cells assessed as accumulation at S phase at 20 uM incubated for 24 hrs by propidium iodide staining based flow cytometry (reference value: 19.47%); format: functional
[20] = tested on: A549; test: Induction of apoptosis in human A549 cells assessed as early apoptotic cells level at 10 uM incubated for 24 hrs by Annexin V-FITC and propidium iodide staining based flow cytometry (reference value: 1.81%); format: functional
[21] = tested on: A549; test: Induction of cell cycle arrest in human A549 cells assessed as accumulation at S phase at 15 uM incubated for 24 hrs by propidium iodide staining based flow cytometry (reference value: 19.47%); format: functional
[22] = tested on: A549; test: Induction of apoptosis in human A549 cells assessed as early apoptotic cells level at 15 uM incubated for 24 hrs by Annexin V-FITC and propidium iodide staining based flow cytometry (reference value: 1.81%); format: functional
[23] = tested on: A549; test: Induction of cell cycle arrest in human A549 cells assessed as accumulation at G1 phase at 10 uM incubated for 24 hrs by propidium iodide staining based flow cytometry (reference value: 66.99%); format: functional
[24] = tested on: A549; test: Cytotoxicity in human A549 cells assessed as reduction in cell viability incubated for 48 hrs in presence of pan-caspase inhibitor Z-VAD-fmk by MTT assay; format: functional, cell-based
[25] = tested on: A549; test: Induction of cell cycle arrest in human A549 cells assessed as accumulation at S phase at 10 uM incubated for 24 hrs by propidium iodide staining based flow cytometry (reference value: 19.47%); format: functional
[26] = tested on: A549; test: Induction of apoptosis in human A549 cells assessed as late apoptotic cells level at 20 uM incubated for 24 hrs by Annexin V-FITC and propidium iodide staining based flow cytometry (reference value: 4.14%); format: functional
[27] = tested on: A549; test: Induction of apoptosis in human A549 cells assessed as necrotic cells level at 15 uM incubated for 24 hrs by Annexin V-FITC and propidium iodide staining based flow cytometry (reference value: 3.23%); format: functional
[28] = tested on: SMMC-7721; test: Cytotoxicity in human SMMC7721 cells assessed as reduction in cell viability at 40 uM incubated for 48 hrs by MTT assay; format: functional, cell-based
[29] = tested on: HepG2; test: Cytotoxicity in human HepG2 cells assessed as reduction in cell viability at 40 uM incubated for 48 hrs by MTT assay; format: functional, cell-based
[30] = tested on: A549; test: Cytotoxicity in human A549 cells assessed as reduction in cell viability at 40 uM incubated for 48 hrs by MTT assay; format: functional, cell-based
[31] = tested on: HT-29; test: Cytotoxicity in human HT-29 cells assessed as reduction in cell viability at 40 uM incubated for 48 hrs by MTT assay; format: functional, cell-based
[32] = tested on: U-87 MG; test: Cytotoxicity in human U87 cells assessed as reduction in cell viability at 40 uM incubated for 48 hrs by MTT assay; format: functional, cell-based; conditions: U-87MG ATCC
[33] = tested on: U-251; test: Cytotoxicity in human U251 cells assessed as reduction in cell viability at 40 uM incubated for 48 hrs by MTT assay; format: functional, cell-based

## C=C1CC[C@@H]2[C@@]3(C)CC=C4[C@H](C(C)C)CC[C@@]4(C)[C@@H]3C[C@H](O)[C@@]2(C)[C@@H]2O[C@@H](c3ccc(O)cc3)O[C@@H]12
[1]
  IC50: > 40 µM
[2]
  IC50: > 40 µM
[3]
  IC50: 25.4 µM
[4]
  IC50: > 40 µM
[5]
  IC50: > 40 µM
[6]
  IC50: > 40 µM

## CC(C)[C@@H]1CC[C@]2(C)C1=CC[C@]1(C)[C@H]3CC[C@@]4(C)O[C@H]([C@H]4O)[C@]3(C)[C@@H](O)C[C@H]12
[7]
  Activity: 83.33%
[8]
  Activity: 3.93%
[9]
  Activity: 3.76%
[10]
  Activity: 5.06%
[11]
  Activity: Dose-dependent effect
[1]
  IC50: 14.6 µM
[12]
  Activity: 3.3%
[13]
  Activity: 6.05%
[14]
  Activity: Dose-dependent effect
[2]
  IC50: 20.1 µM
[15]
  Activity: 7.51%
[16]
  Activity: 3.23%
[17]
  Activity: 85.86%
[18]
  Activity: 16.83%
[19]
  Activity: 10.38%
[20]
  Activity: 2.17%
[21]
  Activity: 11.62%
[22]
  Activity: 2.43%
[3]
  IC50: 15.2 µM
[4]
  IC50: 6.2 µM
[23]
  Activity: 76.4%
[5]
  IC50: 16.4 µM
[6]
  IC50: 12.6 µM
[24]
  Activity: inactive
[25]
  Activity: 16.1%
[26]
  Activity: 20.57%
[27]
  Activity: 3.79%

## CC(C)[C@@H]1CC[C@]2(C)C1=CC[C@]1(C)[C@H]3CC[C@](C)(O)[C@H](O)[C@@H](O)[C@]3(C)[C@@H](O)C[C@H]12
[28]
  Activity: inactive
[29]
  Activity: inactive
[30]
  Activity: inactive
[31]
  Activity: inactive
[32]
  Activity: inactive
[33]
  Activity: inactive

## COc1cccc2c1C(=O)c1c(O)c3c(c(O)c1C2=O)C[C@@](O)(C(=O)CO)C[C@@H]3O[C@H]1C[C@H](N)[C@H](O)[C@H](C)O1 [DOXORUBICIN HYDROCHLORIDE]
[5]
  IC50: 1.1 µM
[6]
  IC50: 2.9 µM

## CC(C)[C@@H]1CC[C@]2(C)C1=CC[C@]1(C)[C@H]3CC[C@]4(C)O[C@@H]4C(=O)[C@]3(C)[C@@H](O)C[C@H]12
[28]
  Activity: inactive
[29]
  Activity: inactive
[30]
  Activity: inactive
[31]
  Activity: inactive
[32]
  Activity: inactive
[33]
  Activity: inactive

## CC1=C[C@@H](O)[C@@]2(C)[C@H](CC1)[C@@]1(C)CC=C3[C@H](C(C)C)CC[C@@]3(C)[C@@H]1C[C@@H]2O
[1]
  IC50: 24.2 µM
[2]
  IC50: > 40 µM
[3]
  IC50: > 40 µM
[4]
  IC50: > 40 µM
[5]
  IC50: > 40 µM
[6]
  IC50: > 40 µM

## CC(C)[C@@H]1CC[C@]2(C)C1=CC[C@]1(C)[C@H]3CC[C@]4(C)O[C@@H]4[C@@H](O)[C@]3(C)[C@@H](O)C[C@H]12
[28]
  Activity: inactive
[29]
  Activity: inactive
[30]
  Activity: inactive
[31]
  Activity: inactive
[32]
  Activity: inactive
[33]
  Activity: inactive

## C=C1CC[C@@H]2[C@@]3(C)CC=C4[C@H](C(C)C)CC[C@@]4(C)[C@@H]3C[C@H](O)[C@@]2(C)[C@H](O)[C@H]1O
[1]
  IC50: > 40 µM
[2]
  IC50: 8.2 µM
[3]
  IC50: > 40 µM
[4]
  IC50: 16.3 µM
[5]
  IC50: > 40 µM
[6]
  IC50: > 40 µM
